# Laboratory results from US4207326A, “Antimicrobial quaternary pyrazole derivatives” (Cilag-Chemie A.G., priority 1979, dated 1980).
# Test system: S. aureus
# Assay: Antibacterial activity: Minimum Inhibitory Concentration
# Type: cell-based, Staphylococcus aureus ATCC 6538
# Conditions: Staphylococcus aureus, Day 1, 37° C., 24 hours
# Description: (§1) The antimicrobial activity was determined by inoculation of the test microorganism into suitable growth media containing solutions of the compounds at concentrations of 100, 50, 10, 5, 1.0, 0.5 and 0.1 μg/ml. The reference antibiotics used were Gentamicin for the antibacterial tests and Amphotericin B for the antimycotic and antifungal tests. After incubation the antimicrobial activity was recorded as the Minimal Inhibitory Concentration (M.I.C.), i.e., the lowest concentration preventing macroscopically visible growth, for each test compound against each organism.
# (§2) An initial solution of each formula (I) compound to be tested in sterile distilled water was prepared at a concentration of 1000 μg/ml. With appropriate dilutions using sterile distilled water, additional solutions were prepared at concentrations of 500, 100, 50, 10, 5 and 1 μg/ml.
# (§3) They were cultured and maintained on Tryptone Soy Agar (Oxoid CM 131), with the addition of 10% horse blood for the S. pyogenes.
# (§4) To prepare the organisms as inocula for the test, slopes of this medium were streaked with the organisms and incubated at 37° C. for 24 hours. 4.5 Ml volumes of Brian-Heart Infusion Broth (Oxoid CM 225) were then inoculated with a platinum loop from the agar slope cultures and incubated for 24 hours at 37° C. The final inocula were then prepared by adding 0.1 ml aliquots of the Brain-Heart Infusion Broth cultures to 100 ml volumes of sterile physiological saline.
# (§5) (a) For the test on each of the bacterial strains and each of the test and reference compounds, a series of 8 tubes containing 4.5 ml volumes of Brain-Heart Infusion Broth (Oxoid CM 225) were prepared. To 7 of these were added 0.5 ml volumes of the final solutions of the test compouns, giving final concentrations in the broths of 100, 50, 10, 5, 1.0, 0.5 and 0.1 μg/ml. To the eighth tube in each series was added 0.5 ml of the solvent used and diluted as for the preparation of the 1000 μg/ml solution of the compound. This tube was used as the growth control. The tubes were inoculated with 0.02 ml aliquots of the inocula prepared in accordance with "(a) Bacteria" above, and incubated at 37° C. for 24 hours. The tubes were then examined for evidence of bacterial growth as shown by turbidity of the medium and the lowest concentration of the test compound which prevented bacterial growth was recorded as the Minimal Inhibitory Concentration. This test procedure was carried out on two separate days.
row,Compound,MIC
1,"CCCCCCCCCCCC[n+]1c(C)cc(C)n1Cc1ccc(Cl)cc1.[Br-] [Example 6-E, 2-(p-chlorobenzyl)-3,5-dimethyl-1-dodecyl-pyrazolium bromide]",0.5 µg/mL
2,"C=CCn1c(C)cc(C)[n+]1CCCCCCCCCCCCCCCC.[Br-] [Example 7, 2-allyl-3,5-dimethyl-1-hexadecyl-pyrazoliumbromide]",0.5 µg/mL

# Same assay, conditions: Staphylococcus aureus, Day 2, 37° C., 24 hours
row,Compound,MIC
1,"CCCCCCCCCCCC[n+]1c(C)cc(C)n1Cc1ccc(Cl)cc1.[Br-] [Example 6-E, 2-(p-chlorobenzyl)-3,5-dimethyl-1-dodecyl-pyrazolium bromide]",0.5 µg/mL
2,"C=CCn1c(C)cc(C)[n+]1CCCCCCCCCCCCCCCC.[Br-] [Example 7, 2-allyl-3,5-dimethyl-1-hexadecyl-pyrazoliumbromide]",0.5 µg/mL

# Test system: T. rubrum
# Assay: Antifungal activity: Minimum Inhibitory Concentration
# Type: cell-based, Trichophyton rubrum NCPF 197
# Conditions: Trichophyton rubrum, T. rubrum, Day 1; 27° C., one week; read-out: Minimum Inhibitory Concentration
# Description: as §1, §2
# (§6) The A. corymbifera, A. fumigatus, S. schenkii, T. rubrum, T. mentagrophytes, M. canis and P. verrucosa strains were all maintained on Sabouraud-Dextrose Agar (Oxoid CM 41) by incubating for 14 days at 27° C. To prepare the inocula 30 ml volumes of Sabouraud-Liquid medium (Oxoid CM 147) were inoculated from the agar cultures and incubated at 27° C. until heavy uniform growth resulted. The mycelial growth was then broken up by shaking with glass beads.
# (§7) 1 Ml aliquots were removed from each of the cultures for the purpose of making viable counts and the cultures were then held at 4° C. The viable counts were made by preparing serial ten-fold dilutions of the cultures in sterile physiological saline and spreading on plates of Sabouraud-Dextrose Agar (Oxoid CM 41) which were then incubated at 27° C. for 14 days. When the viable counts had confirmed that each of the inocula contained approximately 10^6 colony forming units (C.F.U.) per ml the cultures were withdrawn from the refrigerator and used as the inocula for the tests.
# (§8) (c) For the tests on each of the remaining seven strains and each of the test and reference compounds, a series of 8 tubes containing 4.5 ml volumes of Sabouraud-Liquid Medium (Oxoid CM 147) were prepared. To 7 of these were added 0.5 ml volumes of the final solutions of the test compounds, giving final concentrations in the broths of 100, 50, 10, 5, 1.0, 0.5 and 0.1 μg/ml. To the eighth tube in each series was added 0.5 ml of the solvent used and diluted as for the preparation of the 500 μg/ml solution of the compound. This tube was used as a growth control. The tubes were then inoculated with 0.1 ml aliquots of the inocula prepared as in "(b) Fungi" above. The tubes were then incubated at 27° C. with continuous shaking for a period of one week. The tubes were then examined for evidence of growth as shown by the presence of mycelial growth in the medium and the lowest concentration of the test compound which prevented fungal growth was recorded as the Minimal Inhibitory Concentration. This test procedure was carried out on two separate days.
row,Compound,MIC
1,"CCCCCCCCCCCC[n+]1c(C)cc(C)n1Cc1ccc(Cl)cc1.[Br-] [Example 6-E, 2-(p-chlorobenzyl)-3,5-dimethyl-1-dodecyl-pyrazolium bromide]",5 µg/mL
2,"C=CCn1c(C)cc(C)[n+]1CCCCCCCCCCCCCCCC.[Br-] [Example 7, 2-allyl-3,5-dimethyl-1-hexadecyl-pyrazoliumbromide]",1 µg/mL

# Same assay, conditions: Trichophyton rubrum, T. rubrum, Day 2; 27° C., one week; read-out: Minimum Inhibitory Concentration
row,Compound,MIC
1,"CCCCCCCCCCCC[n+]1c(C)cc(C)n1Cc1ccc(Cl)cc1.[Br-] [Example 6-E, 2-(p-chlorobenzyl)-3,5-dimethyl-1-dodecyl-pyrazolium bromide]",5 µg/mL
2,"C=CCn1c(C)cc(C)[n+]1CCCCCCCCCCCCCCCC.[Br-] [Example 7, 2-allyl-3,5-dimethyl-1-hexadecyl-pyrazoliumbromide]",1 µg/mL

# Test system: P. aeruginosa
# Assay: Antibacterial activity: Minimum Inhibitory Concentration
# Type: cell-based, Pseudomonas aeruginosa ATCC 9027
# Conditions: Pseudomonas aeruginosa; P. aeruginosa, Day 1; 37° C., 24 hours; read-out: Minimum Inhibitory Concentration
# Description: as §1, §2, §3, §4, §5
row,Compound,MIC
1,"CCCCCCCCCCCC[n+]1c(C)cc(C)n1Cc1ccc(Cl)cc1.[Br-] [Example 6-E, 2-(p-chlorobenzyl)-3,5-dimethyl-1-dodecyl-pyrazolium bromide]",5 µg/mL
2,"C=CCn1c(C)cc(C)[n+]1CCCCCCCCCCCCCCCC.[Br-] [Example 7, 2-allyl-3,5-dimethyl-1-hexadecyl-pyrazoliumbromide]",50 µg/mL

# Same assay, conditions: Pseudomonas aeruginosa; P. aeruginosa, Day 2; 37° C., 24 hours; read-out: Minimum Inhibitory Concentration
row,Compound,MIC
1,"CCCCCCCCCCCC[n+]1c(C)cc(C)n1Cc1ccc(Cl)cc1.[Br-] [Example 6-E, 2-(p-chlorobenzyl)-3,5-dimethyl-1-dodecyl-pyrazolium bromide]",5 µg/mL
2,"C=CCn1c(C)cc(C)[n+]1CCCCCCCCCCCCCCCC.[Br-] [Example 7, 2-allyl-3,5-dimethyl-1-hexadecyl-pyrazoliumbromide]",10 µg/mL

# Test system: A. fumigatus
# Assay: Antifungal activity: Minimum Inhibitory Concentration
# Type: cell-based, Aspergillus fimigatus (A. fumigatus) NCPF 2140
# Conditions: Aspergillus fumigatus, A. fumigatus, Day 1; 27° C., one week; read-out: Minimum Inhibitory Concentration
# Description: as §1, §2, §6, §7, §8
row,Compound,MIC
1,"CCCCCCCCCCCC[n+]1c(C)cc(C)n1Cc1ccc(Cl)cc1.[Br-] [Example 6-E, 2-(p-chlorobenzyl)-3,5-dimethyl-1-dodecyl-pyrazolium bromide]",10 µg/mL
2,"C=CCn1c(C)cc(C)[n+]1CCCCCCCCCCCCCCCC.[Br-] [Example 7, 2-allyl-3,5-dimethyl-1-hexadecyl-pyrazoliumbromide]",10 µg/mL

# Same assay, conditions: Aspergillus fumigatus, A. fumigatus, Day 2; 27° C., one week; read-out: Minimum Inhibitory Concentration
row,Compound,MIC
1,"CCCCCCCCCCCC[n+]1c(C)cc(C)n1Cc1ccc(Cl)cc1.[Br-] [Example 6-E, 2-(p-chlorobenzyl)-3,5-dimethyl-1-dodecyl-pyrazolium bromide]",5 µg/mL
2,"C=CCn1c(C)cc(C)[n+]1CCCCCCCCCCCCCCCC.[Br-] [Example 7, 2-allyl-3,5-dimethyl-1-hexadecyl-pyrazoliumbromide]",50 µg/mL

# Test system: S. schenkii
# Assay: as above
# Type: cell-based, Sporotrichon schenkii NCPF 3182
# Conditions: S. schenkii, Day 1; 27° C., one week; read-out: Minimum Inhibitory Concentration
# Description: as §1, §2, §6, §7, §8
row,Compound,MIC
1,"CCCCCCCCCCCC[n+]1c(C)cc(C)n1Cc1ccc(Cl)cc1.[Br-] [Example 6-E, 2-(p-chlorobenzyl)-3,5-dimethyl-1-dodecyl-pyrazolium bromide]",5 µg/mL
2,"C=CCn1c(C)cc(C)[n+]1CCCCCCCCCCCCCCCC.[Br-] [Example 7, 2-allyl-3,5-dimethyl-1-hexadecyl-pyrazoliumbromide]",5 µg/mL

# Same assay, conditions: S. schenkii, Day 2; 27° C., one week; read-out: Minimum Inhibitory Concentration
row,Compound,MIC
1,"CCCCCCCCCCCC[n+]1c(C)cc(C)n1Cc1ccc(Cl)cc1.[Br-] [Example 6-E, 2-(p-chlorobenzyl)-3,5-dimethyl-1-dodecyl-pyrazolium bromide]",1 µg/mL
2,"C=CCn1c(C)cc(C)[n+]1CCCCCCCCCCCCCCCC.[Br-] [Example 7, 2-allyl-3,5-dimethyl-1-hexadecyl-pyrazoliumbromide]",5 µg/mL

# Test system: C. neoformans
# Assay: Antimycotic activity: Minimum Inhibitory Concentration
# Type: cell-based, Cryptococcus neoformans NCPF 3184
# Conditions: Cryptococcus neoformans, pH 5.5, C. neoformans, Day 1; pH 5.5, 30° C., 72 hours; read-out: Minimum Inhibitory Concentrations
# Description: as §1, §2
# The C. neoformans was also maintained on Sabouraud-Dextrose Agar (Oxoid CM 41), but in this case cultures for the preparation of the inoculum were incubated on this agar at 30° C. for 48 hours. A 4.5 ml volume of citric acid-phosphate buffer pH 5.5 plus Yeast-Nitrogen Base (Difco-0392-15) was then inoculated from the agar culture and incubated at 30° C. for 48 hours. A 0.1 ml aliquot of this culture was then added to 100 ml sterile physiological saline to give the final inoculum.
# (b) For the tests on each of the C. albicans, C. tropicalis and C. neoformans strains and each of the test and reference compounds, a series of 8 tubes containing 4.5 ml volumes of citric acid-phosphate buffer pH 5.5 plus Yeast-Nitrogen Base (Difco 0392-15) were prepared. To 7 of these were added 0.5 ml volumes of the final solutions of the test compounds, giving final concentrations in the broths of 100, 50, 10, 5, 1.0, 0.5 and 0.1 μg/ml. To the eighth tube in each series was added 0.5 ml of the solvent used and diluted as for the preparation of the 1000 μg/ml solution of the compound. This tube was used as the growth control. The tubes were then inoculated with 0.1 ml aliquots of the inocula prepared as in "(b) Fungi" above. The tubes inoculated with the C. albicans and C. tropicalis were inoculated at 37° C. for 72 hours and the tubes inoculated with the C. neoformans straim were incubated at 30° C. for 72 hours. […] The tubes were then examined for evidence of growth as shown by turbidity of the medium and the lowest concentration of the test compound which prevented fungal growth was recorded as the Minimal Inhibitory Concentration. This test procedure was carried out on two separate days.
row,Compound,MIC
1,"CCCCCCCCCCCC[n+]1c(C)cc(C)n1Cc1ccc(Cl)cc1.[Br-] [Example 6-E, 2-(p-chlorobenzyl)-3,5-dimethyl-1-dodecyl-pyrazolium bromide]",0.5 µg/mL
2,"C=CCn1c(C)cc(C)[n+]1CCCCCCCCCCCCCCCC.[Br-] [Example 7, 2-allyl-3,5-dimethyl-1-hexadecyl-pyrazoliumbromide]",1 µg/mL

# Same assay, conditions: Cryptococcus neoformans, pH 5.5, C. neoformans, Day 2; pH 5.5, 30° C., 72 hours; read-out: Minimum Inhibitory Concentrations
row,Compound,MIC
1,"CCCCCCCCCCCC[n+]1c(C)cc(C)n1Cc1ccc(Cl)cc1.[Br-] [Example 6-E, 2-(p-chlorobenzyl)-3,5-dimethyl-1-dodecyl-pyrazolium bromide]",0.5 µg/mL
2,"C=CCn1c(C)cc(C)[n+]1CCCCCCCCCCCCCCCC.[Br-] [Example 7, 2-allyl-3,5-dimethyl-1-hexadecyl-pyrazoliumbromide]",0.5 µg/mL
